Non-standard residues stand in square brackets, D forms with d. Residues, ends and D or L forms follow the SMILES beside them. ξ: configuration not given here. Ile(3ξ) = CCC(C)[C@H](N)C(=O)O
Each compound was assayed against T1, Pituitary adenylate cyclase-activating polypeptide (Homo sapiens, UniProt P18509).
T1 sequence (P18509 whole entry): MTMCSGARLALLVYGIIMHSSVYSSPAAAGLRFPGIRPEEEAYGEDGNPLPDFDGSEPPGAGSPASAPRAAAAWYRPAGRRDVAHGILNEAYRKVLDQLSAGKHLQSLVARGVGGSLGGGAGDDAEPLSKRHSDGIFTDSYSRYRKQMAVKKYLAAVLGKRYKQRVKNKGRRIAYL

Ki [nM]	Compound
200	CCC(C)[C@H](NC(=O)CNC(=O)[C@H](CC(=O)O)NC(=O)[C@H](Cc1ccccc1)NC(=O)[C@@H](N)Cc1cnc[nH]1)C(=O)N[C@@H](Cc1ccccc1)C(=O)N[C@H](C(=O)N[C@@H](CC(=O)O)C(=O)N[C@@H](CO)C(=O)N[C@@H](Cc1ccc(O)cc1)C(=O)N[C@@H](CO)C(=O)N[C@@H](CCCN=C(N)N)C(=O)N[C@@H](Cc1ccc(O)cc1)C(=O)N[C@@H](CCCN=C(N)N)C(=O)N[C@@H](CCCCN)C(=O)N[C@@H](CCC(N)=O)C(=O)N[C@@H](CCSC)C(=O)N[C@@H](C)C(=O)N[C@H](C(=O)N[C@@H](CCCCN)C(=O)N[C@@H](CCCCN)C(=O)N[C@@H](Cc1ccc(O)cc1)C(=O)N[C@@H](CC(C)C)C(=O)N[C@@H](C)C(=O)N[C@@H](C)C(=O)N[C@H](C(=O)N[C@@H](CC(C)C)C(N)=O)C(C)C)C(C)C)[C@@H](C)O (stereo partly specified) [[Phe2]PACAP(1-27)]
10	CCC(C)[C@H](NC(=O)CNC(=O)[C@H](CC(=O)O)NC(=O)[C@@H](Cc1ccccc1)NC(=O)[C@@H](N)Cc1cnc[nH]1)C(=O)N[C@@H](Cc1ccccc1)C(=O)N[C@H](C(=O)N[C@@H](CC(=O)O)C(=O)N[C@@H](CO)C(=O)N[C@@H](Cc1ccc(O)cc1)C(=O)N[C@@H](CO)C(=O)N[C@@H](CCCN=C(N)N)C(=O)N[C@@H](Cc1ccc(O)cc1)C(=O)N[C@@H](CCCN=C(N)N)C(=O)N[C@@H](CCCCN)C(=O)N[C@@H](CCC(N)=O)C(=O)N[C@@H](CCSC)C(=O)N[C@@H](C)C(=O)N[C@H](C(=O)N[C@@H](CCCCN)C(=O)N[C@@H](CCCCN)C(=O)N[C@@H](Cc1ccc(O)cc1)C(=O)N[C@@H](CC(C)C)C(=O)N[C@@H](C)C(=O)N[C@@H](C)C(=O)N[C@H](C(=O)N[C@@H](CC(C)C)C(=O)NCC(=O)N[C@@H](CCCCN)C(=O)N[C@@H](CCCN=C(N)N)C(=O)N[C@@H](Cc1ccc(O)cc1)C(=O)N[C@@H](CCCCN)C(=O)N[C@@H](CCC(N)=O)C(=O)N[C@@H](CCCN=C(N)N)C(=O)N[C@H](C(=O)N[C@@H](CCCCN)C(=O)N[C@@H](CC(N)=O)C(=O)N[C@@H](CCCCN)C(N)=O)C(C)C)C(C)C)C(C)C)[C@@H](C)O (stereo partly drawn) [[D-Phe2]PACAP-38] (H-H[dF]DG[Ile(3ξ)]FTDSYSRYRKQMAVKKYLAAVLGKRYKQRVKNK-NH2)
300	CCC(C)[C@H](NC(=O)CNC(=O)[C@H](CC(=O)O)NC(=O)[C@@H](Cc1ccccc1)NC(=O)[C@@H](N)Cc1cnc[nH]1)C(=O)N[C@@H](Cc1ccccc1)C(=O)N[C@H](C(=O)N[C@@H](CC(=O)O)C(=O)N[C@@H](CO)C(=O)N[C@@H](Cc1ccc(O)cc1)C(=O)N[C@@H](CO)C(=O)N[C@@H](CCCN=C(N)N)C(=O)N[C@@H](Cc1ccc(O)cc1)C(=O)N[C@@H](CCCN=C(N)N)C(=O)N[C@@H](CCCCN)C(=O)N[C@@H](CCC(N)=O)C(=O)N[C@@H](CCSC)C(=O)N[C@@H](C)C(=O)N[C@H](C(=O)N[C@@H](CCCCN)C(=O)N[C@@H](CCCCN)C(=O)N[C@@H](Cc1ccc(O)cc1)C(=O)N[C@@H](CC(C)C)C(=O)N[C@@H](C)C(=O)N[C@@H](C)C(=O)N[C@H](C(=O)N[C@@H](CC(C)C)C(N)=O)C(C)C)C(C)C)[C@@H](C)O (stereo partly drawn) [[D-Phe2]PACAP-27]
200	H-TDSYSRYRKQMAVKKYLAAVL-NH2 [PACAP(6-27)]
1.5	CSCC[C@H](NC(=O)[C@H](CCC(N)=O)NC(=O)[C@H](CCCCN)NC(=O)[C@H](CCCNC(=N)N)NC(=O)[C@H](Cc1ccc(O)cc1)NC(=O)[C@H](CCCNC(=N)N)NC(=O)[C@H](CO)NC(=O)[C@H](Cc1ccc(O)cc1)NC(=O)[C@H](CO)NC(=O)[C@H](CC(=O)O)NC(=O)[C@@H](NC(=O)[C@@H](N)Cc1ccccc1)[C@@H](C)O)C(=O)N[C@@H](C)C(=O)N[C@H](C(=O)N[C@@H](CCCCN)C(=O)N[C@@H](CCCCN)C(=O)N[C@@H](Cc1ccc(O)cc1)C(=O)N[C@@H](CC(C)C)C(=O)N[C@@H](C)C(=O)N[C@@H](C)C(=O)N[C@H](C(=O)N[C@@H](CC(C)C)C(=O)NCC(=O)N[C@@H](CCCCN)C(=O)N[C@@H](CCCNC(=N)N)C(=O)N[C@@H](Cc1ccc(O)cc1)C(=O)N[C@@H](CCCCN)C(=O)N[C@@H](CCC(N)=O)C(=O)N[C@@H](CCCNC(=N)N)C(=O)N[C@H](C(=O)N[C@@H](CCCCN)C(=O)N[C@@H](CC(N)=O)C(=O)N[C@@H](CCCCN)C(N)=O)C(C)C)C(C)C)C(C)C
200	CC[C@H](C)[C@H](NC(=O)CNC(=O)[C@H](CC(N)=O)NC(=O)[C@H](CO)NC(=O)[C@@H](N)Cc1cnc[nH]1)C(=O)N[C@@H](Cc1ccccc1)C(=O)N[C@H](C(=O)N[C@@H](CC(=O)O)C(=O)N[C@@H](CO)C(=O)N[C@@H](Cc1ccc(O)cc1)C(=O)N[C@@H](CO)C(=O)N[C@@H](CCCNC(=N)N)C(=O)N[C@@H](Cc1ccc(O)cc1)C(=O)N[C@@H](CCCNC(=N)N)C(=O)N[C@@H](CCCCN)C(=O)N[C@@H](CCC(N)=O)C(=O)N[C@@H](CCSC)C(=O)N[C@@H](C)C(=O)N[C@H](C(=O)N[C@@H](CCCCN)C(=O)N[C@@H](CCCCN)C(=O)N[C@@H](Cc1ccc(O)cc1)C(=O)N[C@@H](CC(C)C)C(=O)N[C@@H](C)C(=O)N[C@@H](C)C(=O)N[C@H](C(=O)N[C@@H](CC(C)C)C(N)=O)C(C)C)C(C)C)[C@@H](C)O [[Asn3]PACAP(1-27)]
100	CCC(C)[C@H](NC(=O)CNC(=O)[C@H](CC(=O)O)NC(=O)[C@H](Cc1ccccc1)NC(=O)[C@H](Cc1cnc[nH]1)NC(C)=O)C(=O)N[C@@H](Cc1ccccc1)C(=O)N[C@H](C(=O)N[C@@H](CC(=O)O)C(=O)N[C@@H](CO)C(=O)N[C@@H](Cc1ccc(O)cc1)C(=O)N[C@@H](CO)C(=O)N[C@@H](CCCN=C(N)N)C(=O)N[C@@H](Cc1ccc(O)cc1)C(=O)N[C@@H](CCCN=C(N)N)C(=O)N[C@@H](CCCCN)C(=O)N[C@@H](CCC(N)=O)C(=O)N[C@@H](CCSC)C(=O)N[C@@H](C)C(=O)N[C@H](C(=O)N[C@@H](CCCCN)C(=O)N[C@@H](CCCCN)C(=O)N[C@@H](Cc1ccc(O)cc1)C(=O)N[C@@H](CC(C)C)C(=O)N[C@@H](C)C(=O)N[C@@H](C)C(=O)N[C@H](C(=O)N[C@@H](CC(C)C)C(N)=O)C(C)C)C(C)C)[C@@H](C)O (stereo partly specified) [[AcHis1,Phe2]PACAP(1-27)]
10	CCC(C)[C@H](NC(=O)CNC(=O)[C@H](CC(=O)O)NC(=O)[C@H](Cc1ccccc1)NC(=O)[C@@H](N)Cc1cnc[nH]1)C(=O)N[C@@H](Cc1ccccc1)C(=O)N[C@H](C(=O)N[C@@H](CC(=O)O)C(=O)N[C@@H](CO)C(=O)N[C@@H](Cc1ccc(O)cc1)C(=O)N[C@@H](CO)C(=O)N[C@@H](CCCN=C(N)N)C(=O)N[C@@H](Cc1ccc(O)cc1)C(=O)N[C@@H](CCCN=C(N)N)C(=O)N[C@@H](CCCCN)C(=O)N[C@@H](CCC(N)=O)C(=O)N[C@@H](CCSC)C(=O)N[C@@H](C)C(=O)N[C@H](C(=O)N[C@@H](CCCCN)C(=O)N[C@@H](CCCCN)C(=O)N[C@@H](Cc1ccc(O)cc1)C(=O)N[C@@H](CC(C)C)C(=O)N[C@@H](C)C(=O)N[C@@H](C)C(=O)N[C@H](C(=O)N[C@@H](CC(C)C)C(=O)NCC(=O)N[C@@H](CCCCN)C(=O)N[C@@H](CCCN=C(N)N)C(=O)N[C@@H](Cc1ccc(O)cc1)C(=O)N[C@@H](CCCCN)C(=O)N[C@@H](CCC(N)=O)C(=O)N[C@@H](CCCN=C(N)N)C(=O)N[C@H](C(=O)N[C@@H](CCCCN)C(=O)N[C@@H](CC(N)=O)C(=O)N[C@@H](CCCCN)C(N)=O)C(C)C)C(C)C)C(C)C)[C@@H](C)O (stereo partly specified) [[Phe2]PACAP(1-38)] (H-HFDG[Ile(3ξ)]FTDSYSRYRKQMAVKKYLAAVLGKRYKQRVKNK-NH2)
200	CCC(C)[C@H](NC(=O)CNC(=O)[C@@H](N)CC(=O)O)C(=O)N[C@@H](Cc1ccccc1)C(=O)N[C@H](C(=O)N[C@@H](CC(=O)O)C(=O)N[C@@H](CO)C(=O)N[C@@H](Cc1ccc(O)cc1)C(=O)N[C@@H](CO)C(=O)N[C@@H](CCCN=C(N)N)C(=O)N[C@@H](Cc1ccc(O)cc1)C(=O)N[C@@H](CCCN=C(N)N)C(=O)N[C@@H](CCCCN)C(=O)N[C@@H](CCC(N)=O)C(=O)N[C@@H](CCSC)C(=O)N[C@@H](C)C(=O)N[C@H](C(=O)N[C@@H](CCCCN)C(=O)N[C@@H](CCCCN)C(=O)N[C@@H](Cc1ccc(O)cc1)C(=O)N[C@@H](CC(C)C)C(=O)N[C@@H](C)C(=O)N[C@@H](C)C(=O)N[C@H](C(=O)N[C@@H](CC(C)C)C(N)=O)C(C)C)C(C)C)[C@@H](C)O (stereo partly specified) [PACAP(3-27)] (H-DG[Ile(3ξ)]FTDSYSRYRKQMAVKKYLAAVL-NH2)
10	CCC(C)[C@H](NC(=O)CNC(=O)[C@H](CC(=O)O)NC(=O)[C@H](Cc1ccccc1)NC(=O)[C@H](Cc1cnc[nH]1)NC(C)=O)C(=O)N[C@@H](Cc1ccccc1)C(=O)N[C@H](C(=O)N[C@@H](CC(=O)O)C(=O)N[C@@H](CO)C(=O)N[C@@H](Cc1ccc(O)cc1)C(=O)N[C@@H](CO)C(=O)N[C@@H](CCCN=C(N)N)C(=O)N[C@@H](Cc1ccc(O)cc1)C(=O)N[C@@H](CCCN=C(N)N)C(=O)N[C@@H](CCCCN)C(=O)N[C@@H](CCC(N)=O)C(=O)N[C@@H](CCSC)C(=O)N[C@@H](C)C(=O)N[C@H](C(=O)N[C@@H](CCCCN)C(=O)N[C@@H](CCCCN)C(=O)N[C@@H](Cc1ccc(O)cc1)C(=O)N[C@@H](CC(C)C)C(=O)N[C@@H](C)C(=O)N[C@@H](C)C(=O)N[C@H](C(=O)N[C@@H](CC(C)C)C(=O)NCC(=O)N[C@@H](CCCCN)C(=O)N[C@@H](CCCN=C(N)N)C(=O)N[C@@H](Cc1ccc(O)cc1)C(=O)N[C@@H](CCCCN)C(=O)N[C@@H](CCC(N)=O)C(=O)N[C@@H](CCCN=C(N)N)C(=O)N[C@H](C(=O)N[C@@H](CCCCN)C(=O)N[C@@H](CC(N)=O)C(=O)N[C@@H](CCCCN)C(N)=O)C(C)C)C(C)C)C(C)C)[C@@H](C)O (stereo partly specified) [[AcHis1,Phe2]PACAP(1-38)]
150	CCC(C)[C@H](N)C(=O)N[C@@H](Cc1ccccc1)C(=O)N[C@H](C(=O)N[C@@H](CC(=O)O)C(=O)N[C@@H](CO)C(=O)N[C@@H](Cc1ccc(O)cc1)C(=O)N[C@@H](CO)C(=O)N[C@@H](CCCN=C(N)N)C(=O)N[C@@H](Cc1ccc(O)cc1)C(=O)N[C@@H](CCCN=C(N)N)C(=O)N[C@@H](CCCCN)C(=O)N[C@@H](CCC(N)=O)C(=O)N[C@@H](CCSC)C(=O)N[C@@H](C)C(=O)N[C@H](C(=O)N[C@@H](CCCCN)C(=O)N[C@@H](CCCCN)C(=O)N[C@@H](Cc1ccc(O)cc1)C(=O)N[C@@H](CC(C)C)C(=O)N[C@@H](C)C(=O)N[C@@H](C)C(=O)N[C@H](C(=O)N[C@@H](CC(C)C)C(N)=O)C(C)C)C(C)C)[C@@H](C)O (stereo partly specified) [PACAP(5-27)] (H-[Ile(3ξ)]FTDSYSRYRKQMAVKKYLAAVL-NH2)

— BindingDB's records for doi:10.1111/j.1432-1033.1992.tb17043.x (Universit&Eacute, 1992)
